Source: PMC6150245 (Molecules : A Journal of Synthetic Chemistry and Natural …, 2017)
≈ marks a conversion by molar mass, not a printed value. Entries after “also recorded” stand apart in the source; their conditions may differ. Read-outs that look alike come from different tables or passages of the source.

Columns and labels:
C. albicans ATCC18804 = experiment: Antifungal MIC, microdilution in RPMI 1640; format: cell-based, Candida albicans; details: C. albicans ATCC18804, RPMI 1640, 48 h, 37 °C, peptides 128-1 µM, triplicate
Experimental: (§1) The minimum inhibitory concentrations (MIC) were determined following the Clinical and Laboratory Standards Institute (CLSI) recommendations. Antibacterial and antifungal activity tests were performed using the microdilution method. For initial screening, peptides were tested against C. albicans ATCC18804, E. coli ATCC25922, and S. aureus ATCC25923. Briefly, bacterial cells in MH broth (80 μL aliquots containing 1.5 × 10^7 CFU) were incubated with synthetic peptides (serial dilution from 512 to 1 μM) dissolved in Milli-Q water. After incubation for 24 h at 37 °C, the microtiter plates were analyzed visually by addition of resazurin. For the antifungal assays, the culture medium was RPMI 1640 buffered with L-glutamine (pH 7.2), 0.165 M morpholinepropanesulfonic acid (MOPS), and 2% glucose. Cell suspensions (final concentration of 1 × 10^3–2.5 × 10^3 CFU/mL) were inoculated on a microdilution plate previously prepared with serially diluted synthetic peptides (128–1 μM). The plates were incubated for 48 h at 37 °C. Each assay was performed in triplicates. Additionally, amphotericin B and fluconazole were used as the control drugs. MIC was defined as the lowest concentration of peptide at which no growth was detected.

S. aureus ATCC25923 [1] = experiment: MIC, microdilution in MH broth (initial screening); format: cell-based, Staphylococcus aureus; details: 24 h, 37 °C, resazurin, triplicate
Experimental: as §1

E. coli ATCC25922 = experiment: MIC, microdilution in MH broth (initial screening); format: cell-based, Escherichia coli; details: 24 h, 37 °C, resazurin, triplicate
Experimental: as §1

human red blood cells = experiment: Hemolysis assay; format: cell-based; details: 1% (v/v) human erythrocytes in Tris-saline pH 7.4, 1 h, 37 °C, absorbance 405 nm, triplicate
Experimental: Peptide hemolysis assays were performed as previously described by Castro et al.. Briefly, freshly prepared human red blood cells (RBCs) were washed three times with 0.01 M Tris-HCl (pH 7.4) containing 0.15 M NaCl (Tris-saline). A suspension of 1% (v/v) erythrocytes was made with packed RBCs resuspended in Tris-saline. Peptides were dissolved in Tris-saline at an initial concentration of […] and serially diluted in the same buffer to determine the concentration that triggered 50% hemolysis (HC50). As the positive control (100% lysis), 1% (v/v) Triton X-100 solution was used. After 1 h of incubation at 37 °C, the samples were centrifuged at 3000× g for 5 min. Then, 100 µL aliquots of the supernatant were transferred to 96-well microplates, and the absorbance was determined at 405 nm. The assay was performed in triplicates.

E. coli CA4 = format: cell-based, Escherichia coli; details: E. coli CA4 (commensal), CAMHB, 24 h, 37 °C, duplicate
Experimental: (§2) After confirming antibacterial activity, the peptides were tested against gram-positive and gram-negative multidrug-resistant bacteria, including strains of clinical origin. The peptides, p-BthTX-I, des-Lys^12/(p-BthTX-I)2, and Lys^13-(p-BthTX-I)2 were serially diluted (512–1 μM) in cation-adjusted BBL MH II broth (CAMHB; Becton, Dickson and Co., Sparks, MD, USA) as described by CLSI. Bacteria at 5.0 × 10^5 CFU/mL were added to the media and incubated for 24 h at 37 °C. […] Assays were performed in duplicates, and sterile broth was used as the negative control. To determine the minimal bactericidal concentration (MBC), 100 µL from each well of the MIC assay plates that inhibited bacterial growth were sub-cultured onto MH agar (MHA) plates. […] If the ratio of MBC/MIC was >4, the activity of the peptide was considered bacteriostatic, as described previously.

E. coli ATCC35218 = format: cell-based, Escherichia coli
Experimental: as §2

S. epidermidis ATCC35984 = format: cell-based, Staphylococcus epidermidis
Experimental: as §2

K. pneumoniae ATCC700603 = format: cell-based, Klebsiella pneumoniae; details: K. pneumoniae ATCC700603 (SHV-18), CAMHB, 24 h, 37 °C
Experimental: as §2

K. pneumoniae NDM-1 = format: cell-based, Klebsiella pneumoniae; details: K. pneumoniae NDM-1, sub-culture on MH agar, 99.9% death
Experimental: as §2

[2] = system: K. pneumoniae ATCCBAA1705; format: cell-based, Klebsiella pneumoniae; details: K. pneumoniae ATCCBAA1705 (KPC), CAMHB, 24 h, 37 °C, duplicate
Experimental: as §2

S. aureus SA88 = format: cell-based, Staphylococcus aureus
Experimental: as §2

S. aureus ATCC25923 [3] = format: cell-based, Staphylococcus aureus; details: S. aureus ATCC25923, CAMHB, 24 h, 37 °C, duplicate
Experimental: as §2

S. aureus SA16 = format: cell-based, Staphylococcus aureus; details: S. aureus SA16 (MRSA)
Experimental: as §2

S. aureus SA33 = format: cell-based, Staphylococcus aureus; details: S. aureus SA33, sub-culture on MH agar, 99.9% death
Experimental: as §2

S. aureus SA90 = format: cell-based, Staphylococcus aureus; details: S. aureus SA90, sub-culture on MH agar, 99.9% death
Experimental: as §2

E. faecium HSJRP8 = format: cell-based, Enterococcus faecium
Experimental: as §2

E. faecium VRE16 = format: cell-based, Enterococcus faecium
Experimental: as §2

Serum stability assay = format: in vitro ADME; details: 25% human male serum, 37 °C, peptide 100 µM, analytical HPLC (C18) and LC/MS, duplicate
Experimental: Crude peptides were purified by semi-preparative HPLC on a Shimadzu system (Tokyo, Japan) using a C18 reversed phase column (10 × 250 mm, Phenomenex, Torrance, CA, USA). Solvent A contained 0.045% trifluoroacetic acid (TFA) in water. Elution was achieved using a linear gradient (5–35%) of solvent B (0.036% TFA in acetonitrile) for 120 min at 5 mL/min. The purity of the peptides was determined by analytical HPLC on a Shimadzu system using a C18 column (4.6 × 150 mm, Phenomenex, Torrance, CA, USA) with a linear gradient of solvent B (5–95%) for 30 min at 1 mL/min. Liquid chromatography-mass spectrometry (LC/MS) was performed using a C18 column (2.0 × 30 mm, Shimadzu) attached to analytical HPLC and an amaZon ion trap mass spectrometer (Bruker Daltonics) using ESI. Peptides were eluted using a linear gradient of solvent B (5–95%) for 15 min at 0.2 mL/min.
Peptide stability assays were performed in diluted serum as previously described with minor modifications. First, 2 mL of 25% human male serum was centrifuged at 3000× g for 10 min; the supernatant was collected and incubated for 15 min at 37 °C. Next, peptides were added to the serum to a final concentration of 100 µM. Then, 200 µL of samples were collected at different time points during the assays, which were performed in duplicate. Analyses were performed by LC/MS and analytical HPLC, as described above.

25% human male serum = details: 37 °C, up to 30 h

CC(C)C[C@H](NC(=O)[C@H](Cc1c[nH]cn1)NC(=O)[C@H](Cc1ccc(O)cc1)NC(=O)[C@H](CCCNC(=N)N)NC(=O)[C@H](Cc1ccc(O)cc1)NC(=O)[C@H](CCCCN)NC(=O)[C@@H](N)CCCCN)C(=O)N[C@@H](CCCCN)C(=O)N1CCC[C@H]1C(=O)N[C@@H](Cc1ccccc1)C(=O)N[C@@H](CSSC[C@H](NC(=O)[C@H](Cc1ccccc1)NC(=O)[C@@H]1CCCN1C(=O)[C@H](CCCCN)NC(=O)[C@H](CC(C)C)NC(=O)[C@H](Cc1c[nH]cn1)NC(=O)[C@H](Cc1ccc(O)cc1)NC(=O)[C@H](CCCNC(=N)N)NC(=O)[C@H](Cc1ccc(O)cc1)NC(=O)[C@H](CCCCN)NC(=O)[C@@H](N)CCCCN)C(=O)N[C@@H](CCCCN)C(=O)O)C(=O)N[C@@H](CCCCN)C(=O)O [des-Lys^13-(p-BthTX-I)2]
MIC (C. albicans ATCC18804): >128 µM
MIC (S. aureus ATCC25923 [1]): 128 µM (≈ 412 µg/mL)
MIC (E. coli ATCC25922): 32 µM (≈ 103 µg/mL)
HC50 (peptide concentration that produced 50% hemolysis) (human red blood cells): >128 µM

CC(C)C[C@H](NC(=O)[C@H](Cc1c[nH]cn1)NC(=O)[C@H](Cc1ccc(O)cc1)NC(=O)[C@H](CCCNC(=N)N)NC(=O)[C@H](Cc1ccc(O)cc1)NC(=O)[C@H](CCCCN)NC(=O)[C@@H](N)CCCCN)C(=O)N[C@@H](CCCCN)C(=O)N1CCC[C@H]1C(=O)N[C@@H](Cc1ccccc1)C(=O)N[C@@H](CS)C(=O)N[C@@H](CCCCN)C(=O)N[C@@H](CCCCN)C(=O)O [p-BthTX-I]
MIC (E. coli CA4): >512 µM
MIC (E. coli ATCC35218; E. coli ATCC35218, CAMHB, 24 h, 37 °C, duplicate): 512 µM (≈ 890 µg/mL)
MBC (E. coli ATCC35218; E. coli ATCC35218, sub-culture on MH agar, 99.9% death): >512 µM
MIC (S. epidermidis ATCC35984; S. epidermidis ATCC35984, CAMHB, 24 h, 37 °C, duplicate): 128 µM (≈ 223 µg/mL)
MBC (S. epidermidis ATCC35984; S. epidermidis ATCC35984, sub-culture on MH agar, 99.9% death): 512 µM (≈ 890 µg/mL)
MIC (K. pneumoniae ATCC700603): >512 µM
MBC (K. pneumoniae NDM-1): >512 µM
MIC [2]: >512 µM
MIC (S. aureus SA88; S. aureus SA88 (MRSA, daptomycin heteroresistant), CAMHB, 24 h, 37 °C, duplicate): 512 µM (≈ 890 µg/mL)
MBC (S. aureus SA88; S. aureus SA88, sub-culture on MH agar, 99.9% death): >512 µM
MIC (S. aureus ATCC25923 [3]): >512 µM
MIC (S. aureus SA16; CAMHB, 24 h, 37 °C): 512 µM (≈ 890 µg/mL)
MBC (S. aureus SA16; sub-culture on MH agar, 99.9% death): 512 µM (≈ 890 µg/mL)
MBC (S. aureus SA33): >512 µM
MBC (S. aureus SA90): 512 µM (≈ 890 µg/mL)
MIC (E. faecium HSJRP8; E. faecium HSJRP8 (daptomycin resistant), CAMHB, 24 h, 37 °C, duplicate): 32 µM (≈ 55.7 µg/mL)
MBC (E. faecium HSJRP8; E. faecium HSJRP8, sub-culture on MH agar, 99.9% death): >512 µM
MIC (E. faecium VRE16; E. faecium VRE16 (vancomycin resistant), CAMHB, 24 h, 37 °C, duplicate): 128 µM (≈ 223 µg/mL)
MBC (E. faecium VRE16; E. faecium VRE16, sub-culture on MH agar, 99.9% death): >512 µM
Incubation time after which the peptide was completely degraded in human serum (Serum stability assay): 30 min

KKYRYHLKPFCKK [(p-BthTX-I)2]
cleaved bond (25% human male serum): Lys12-Lys13, major, 30 min; also recorded: Cys11-Lys12, major, 30 min
fragment found (25% human male serum): (p-BthTX-I)2 minus one Lys residue, first_seen, 5 min; also recorded: (p-BthTX-I)2 minus two Lys residues, major, 5 min; also recorded: (p-BthTX-I)2 minus three Lys residues, 20 min
